{"source": "paper PMC10801393", "about": "(Clinical and Translational Science, 2024)", "origin": "cited, not measured here", "key": {"[1]": {"conditions": "tamoxifen 20 mg/day"}, "[2]": {"assay": "not given", "remark": "listed apart in the source"}}, "note": "Where two headings read alike, the source gives them in different places."}
{"smiles": "CC(C)(C(=O)O)c1ccc(C(O)CCCN2CCC(C(O)(c3ccccc3)c3ccccc3)CC2)cc1", "note": "(centres unmarked) [fexofenadine, Fexofenadine]", "values": [{"measurement": "BDDCS class", "value": "class 3"}]}
{"smiles": "CC/C(=C(\\c1ccccc1)c1ccc(OCCN(C)C)cc1)c1ccccc1", "note": "[tamoxifen, Tamoxifen]", "values": [{"measurement": "steady‐state plasma concentration (C ss)", "setting": "[1]; postmenopausal patients", "value": 201.23, "unit": "ng/mL"}, {"measurement": "steady‐state plasma concentration (C ss)", "setting": "[1]; premenopausal patients", "value": 116.95, "unit": "ng/mL"}]}
{"smiles": "Cc1ncc2n1-c1ccc(Cl)cc1C(c1ccccc1F)=NC2", "note": "[midazolam]", "values": [{"measurement": "oral clearance geometric mean", "setting": "[2]; postmenopausal group", "value": 24.10, "unit": "mL/min/kg"}, {"measurement": "oral clearance geometric mean", "setting": "[2]; premenopausal group", "value": 30.09, "unit": "mL/min/kg"}]}
